The text below walks through data of PMC11204543, “Halenaquinol Blocks Staphylococcal Protein A Anchoring on Cell Wall Surface by Inhibiting Sortase A in Staphylococcus aureus” (Marine Drugs, 2024).

Values after ≈ are worked out from the molar mass of the structure shown. Values joined by “and” are separate entries in the source; they are usually repeats but may differ in a detail not shown here. Equal entries are not always repeated. Structures can show the parent of a compound that is named as a salt. Where two headings read alike, the source gives them in different places.

The subject of one assay is S. aureus SrtA. Particulars: cited from earlier work.
In the next assay the test system is S. aureus ATCC6538p. The experiment in a line: Antibacterial activity (CLSI broth dilution MIC). The assay is classed as cell-based. The following applies: Staphylococcus aureus, 12 h. The protocol:
(§1) The SrtA inhibitory activity of compounds 1–6, along with that of a known SrtA inhibitor, quercetin [24], was evaluated in vitro using a fluorescence-based enzymatic assay. Recombinant SrtA from S. aureus ATCC6538p was expressed in Escherichia coli and was purified using nickel affinity chromatography. The cleavage of a synthetic peptide substrate by the SrtA enzyme emitted fluorescence, which was then measured. Table 1 presents the half maximal inhibitory concentration (IC50) values calculated from SrtA inhibition rates. […] As SrtA inhibitors act as anti-infective agents by disrupting bacterial pathogenesis without affecting microbial viability, minimum inhibitory concentration (MIC) values were examined to determine their effects on bacterial cell growth.
An assessment of the antibacterial properties of the isolated compounds was conducted in accordance with the protocols provided by the Clinical and Laboratory Standard Institute (CLSI). The S. aureus ATCC6538p strain was cultivated overnight at 37 °C in Mueller–Hinton broth (MHB, BD Difco, Sparks, MD, USA). Subsequently, it was harvested using centrifugation, rinsed with sterilized deionized water, and adjusted to the optical density of a 0.5 McFarland standard (625 nm). Test compounds, initially dissolved in DMSO, were further diluted with MHB to achieve a range of 2-fold serial dilutions from 0.25 to 128 μg/mL (maintaining a final DMSO concentration of 1%). In a 96-well plate, 90 μL of the MHB containing the test compound were combined with 10 μL of broth inoculated with the bacterium (final bacterial concentration: 5 × 10^5 cfu/mL). Following a 12 h incubation at 37 °C, the MICs were determined as the lowest concentration at which bacterial growth was inhibited. Ampicillin (Duchefa, Amsterdam, The Netherlands) served as the reference standard.

In assay [1] the target is T1, Recombinant SrtA from S. aureus ATCC6538p (Staphylococcus aureus, UniProt Q2FV99).
T1 construct: no tag is named in the print; made in house; host or cells: Escherichia coli
T1 sequence (Q2FV99 whole entry): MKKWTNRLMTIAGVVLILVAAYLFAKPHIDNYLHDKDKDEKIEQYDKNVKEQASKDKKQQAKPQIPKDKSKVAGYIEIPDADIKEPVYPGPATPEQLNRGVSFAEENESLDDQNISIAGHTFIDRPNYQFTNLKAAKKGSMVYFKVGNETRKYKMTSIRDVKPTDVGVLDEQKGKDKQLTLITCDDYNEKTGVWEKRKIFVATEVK
The assay can be described thus: SrtA inhibition assay (fluorescence-based enzymatic assay, Abz-LPETG-Dnp substrate). Type of assay: biochemical. The following applies: for IC50: SrtA IC50, recombinant SrtA from S. aureus ATCC6538p, mean ± SD (n = 3); for SrtA inhibitory activity in words: similar to that of quercetin. The protocol:
as §1
To determine the type of inhibition, kinetic studies were performed with halenaquinol at IC50 or twofold IC50 based on a Lineweaver and Burk plot (Figure 2A). Inhibitor constants were obtained by a Dixon plot (Figure 2B). […] Moreover, the binding of halenaquinol to SrtA was reversible because the enzyme activity was recovered by dialysis, excluding the possible existence of a covalent bond between inhibitor and enzyme.
The recombinant SrtA protein from S. aureus ATCC6538p was prepared using a previously described method. Each reaction comprised a 100 μL mixture containing a reaction buffer (50 mM Tris-HCl pH 7.5, 150 mM NaCl, and 5 mM CaCl2), 250 ng of synthetic fluorescent peptide substrate (Abz-LPETG-Dnp), 20 μg of SrtA, and varying concentrations of test samples. DMSO served as the negative control, while quercetin [24] was employed as the positive control. Test sample was dissolved in DMSO and then diluted with reaction buffer to yield a final DMSO concentration of 1%. The reaction mixture was aliquoted into a 96-well plate. Following the addition of SrtA, fluorescence intensity was determined using a microplate reader at excitation and emission wavelengths of 320 nm and 420 nm, respectively. The plate was then incubated for 1 h at 37 °C, and fluorescence intensity was measured. The effect of the inhibitor on SrtA was calculated as a percentage relative to the DMSO-treated control. The percentage of SrtA inhibition was calculated using the following equation: {1 − (Difference value of the test compound/Difference value of a negative control)} × 100. A 12-point, twofold serial dilution dose–response assay was performed independently in triplicate. The resultant dose–response concentration range was 128 to 0.1 μg/mL of inhibitor. Data were scaled to internal controls, and a four-parameter logistic model (SigmaPlot ver. 10.0) was used to fit the measured data and determine the IC50 values. In order to investigate the inhibition type and inhibition constant (Ki) values of halenaquinol, SrtA enzyme activity was monitored in various concentrations of substrate in the absence and presence of halenaquinol. All reactions were repeated three times and enzyme kinetics were evaluated using Lineweaver–Burk and Dixon plots.

The subject of the next assay is S. mutans SrtA. Particulars: cited from earlier work.

With `COc1ccc(/C(C#N)=C/c2cc(OC)ccc2OC)cc1` [(Z)-3-(2,5-dimethoxyphenyl)-2-(4-methoxyphenyl) acrylonitrile], the 50% inhibitory concentration (IC50) – broadly, the concentration needed to halve the response being measured – in the assay with S. aureus SrtA (SrtA inhibition) was 9.2 µM. Besides, in the assay with S. aureus SrtA, the “manner of binding the enzyme” value is given as “reversible” and the type of inhibition result was “competitive inhibitor”.
Regarding `CC1(C)S[C@@H]2[C@H](NC(=O)[C@H](N)c3ccccc3)C(=O)N2[C@H]1C(=O)O` [Ampicillin, reference compound], the minimum inhibitory concentration (MIC) (usually the lowest concentration that inhibits growth of the organism) in the assay on S. aureus ATCC6538p (ATCC6538P) was 0.4 µM and 0.1 µg/mL.
Turning to `C[C@@]12CCC(=O)c3coc(c31)C(=O)c1cc3c(O)ccc(OS(=O)(=O)O)c3cc12` [Compound 1, halenaquinol sulfate], the minimal inhibitory concentration (MIC) against S. aureus ATCC6538p (ATCC6538P) was 309 µM and > 128 µg/mL. Moreover, in assay [1], the IC50 was determined as 103 µM and the “SrtA inhibitory activity in words” value is on record as “moderate inhibitory activities”.
Regarding `C[C@]12CCCc3coc(c31)C(=O)c1cc3c(cc12)C(O)CCC3O` (some centres unmarked) [Compound 3, 13,14,15,16-tetrahydroxestoquinol], the MIC with S. aureus ATCC6538p (ATCC6538P) is 395 µM and > 128 µg/mL. For the same compound, the IC50 in assay [1] was 51.8 µM.
Regarding `C[C@@]12CCCc3coc(c31)C(=O)c1cc3c(O)ccc(OS(=O)(=O)O)c3cc12` [Compound 4, xestoquinol sulfate], in the assay on S. aureus ATCC6538p (ATCC6538P), the MIC was 320 µM and > 128 µg/mL. Besides, in assay [1], the 50% inhibitory concentration (IC50) is more than 320 µM.
Regarding `C[C@]12CCCc3coc(c31)C(=O)c1cc3c(cc12)C(=O)C=C(NCCS(=O)(=O)O)C3=O` [Compound 5, secoadociaquinone B], the MIC in the assay with S. aureus ATCC6538p (ATCC6538P) is 290 µM and > 128 µg/mL. In assay [1], the IC50 turned out to be 131 µM and the “SrtA inhibitory activity in words” value is listed as “moderate inhibitory activities”.
Turning to `C[C@H]1OC(=O)c2cc3c(cc21)[C@@]1(C)CC[C@@H](O)c2coc(c21)C3=O` [Compound 6, xestolactone A], the MIC in the assay with S. aureus ATCC6538p (ATCC6538P) is 395 µM and > 128 µg/mL. Besides, the 50% inhibitory concentration (IC50) in assay [1] came out at 47.5 µM.
For `O=c1c(O)c(-c2ccc(O)c(O)c2)oc2cc(O)cc(O)c12` [Quercetin, quercetin, reference compound], the minimal inhibitory concentration (MIC) with S. aureus ATCC6538p (S. aureus ATCC6538p growth, 37 °C, read-out: MIC) is > 424 µM and > 128 µg/mL. In assay [1], the 50% inhibitory concentration (IC50) was found to be 158 µM.
As to `O=C(c1nc(-c2c[nH]c3cc(Br)ccc23)c[nH]1)c1c[nH]c2cc(O)ccc12` [bromotopsentin], in the assay with S. aureus SrtA (S. aureus SrtA), the concentration for half-maximal inhibition (IC50) is 39.6 µM.
For `O=S(=O)(O)c1ccccc1-c1nn2c(-c3ccncc3)nnc2s1` [compound 6e, 3-(4-pyridinyl)-6-(2-sodiumsulfonatephenyl)[1,2,4]triazolo [3,4-b][1,3,4]thiadiazole], the IC50 in the assay with S. aureus SrtA (S. aureus SrtA) was 9.3 µM.
With `COc1cc2ccnc3c2c(c1O)N(C)C=C3` [isoaaptamine], the 50% inhibitory concentration (IC50) in the assay with S. aureus SrtA (S. aureus SrtA) is 16.2 µM.
Regarding `O=c1c(O)c(-c2cc(O)c(O)c(O)c2)oc2cc(O)cc(O)c12` [myricetin], the IC50 in the assay with S. mutans SrtA is 15.48 µg/mL (≈ 48.6 µM).
Consider `O=C(NCCSSCCNC(=O)/C(Cc1ccc(O)c(Br)c1)=N/O)/C(Cc1ccc(O)c(Br)c1)=N/O` [psammaplin A], for which the 50% inhibitory concentration (IC50) in the assay with S. aureus SrtA (S. aureus SrtA) is 47.4 µM.
